≈ marks a conversion by molar mass, not a printed value. Where “and” joins values, the source holds several entries; their conditions need not be identical. Equal entries are not always repeated. Structures can show the parent of a compound that is named as a salt. Where two headings read alike, the source gives them in different places. A value given as a limit tells only on which side of the number the result lay.

Series [1] concerns SVMP activity of five viper venoms. The experiment in a line: SVMP fluorogenic substrate assay, summary across the panel of five viper venoms. Format: biochemical. As to conditions: for EC50: five venoms.
Procedure: (§1) Daughter plates and assay-ready plates were stored at −20°C, with the latter used within a month of creation. For SVMP assay-ready plates, 0.91 µL of each drug from the respective daughter plate was plated, such that in the final assay volume of 91 μL, a final concentration of 10 µM was reached. […] In secondary screening, dose response curves were created, with a top final assay concentration of 10 µM and reaching sub-nanomolar concentrations (concentration range was dependent on specific plate layout), with each concentration tested in duplicate.
(§2) The SVMP activity of crude venom in the presence of inhibitors or vehicle control (DMSO) was measured using a quenched fluorogenic substrate (substrate for MMPs, ADAMs and Cathepsins, Cat no: ES010, Bio-Techne). […] Reactions consisted of 1 µg of venom in 15 µL PBS co-incubated with 0.91 µL of inhibitor at a concentration of 1 mM. […] The plates were read on a CLARIOstar microplate reader (BMG Labtech), at an excitation wavelength of 320–10 nm and emission wavelength of 420–10 nm with 10 flashes per well at 25°C, at a pre-defined end read time. The end-read times were selected independently for each venom, as the plateau point for the venom + vehicle control (maximum fluorescence) identified in an initial 1-h kinetic read.
(§3) The SVMP activity for the end-read data was calculated for each test condition as a percentage of the mean of the venom + vehicle wells (100% activity), with a baseline of the marimastat 10 µM controls representing 0% activity (Supplementary Equation S1).
Series [2] relates to SVMP activity of Echis ocellatus venom. As to the kind of experiment: SVMP fluorogenic substrate assay, E. ocellatus venom. Format: biochemical. As to conditions: for EC50: E. ocellatus venom, 20-min endpoint, N/A = did not cross 50% inhibition at any dose, read-out: EC50, known inhibitors validation screen; for activity at the top dose tested: top 10 µM dose, negative control drugs.
Procedure: as §1, §2, §3

Series [3] relates to SVMP activity of Calloselasma rhodostoma venom. As to the kind of experiment: SVMP fluorogenic substrate assay, C. rhodostoma venom. Format: biochemical. As to conditions: 20-min endpoint, read-out: EC50, known inhibitors validation screen.
Procedure: as §1, §2, §3
In series [4] the test system is SVMP activity of Crotalus atrox venom. As to the kind of experiment: SVMP fluorogenic substrate assay, C. atrox venom. As to conditions: read-out: EC50, known inhibitors validation screen, 30-min endpoint.
Procedure: as §1, §2, §3
The subject of series [5] is SVMP activity of Bitis arietans venom. The experiment in a line: SVMP fluorogenic substrate assay, B. arietans venom. Format: biochemical. As to conditions: 40-min endpoint, read-out: EC50, known inhibitors validation screen.
Procedure: as §1, §2, §3
Series [6] relates to SVMP activity of Bothrops jararaca venom. As to the kind of experiment: SVMP fluorogenic substrate assay, B. jararaca venom. Format: biochemical. As to conditions: 30-min endpoint, read-out: EC50, known inhibitors validation screen.
Procedure: as §1, §2, §3
The target of series [7] is 5 alpha Reductase. Further details: method as in MedChemExpress. As to conditions: benign prostatic hyperplasia, ref MedChemExpress, cited from earlier work.
Details of series [8]: method as in MedChemExpress. As to conditions: ref MedChemExpress; cited from earlier work.
Series [9] has as its system patients. Further details: method as in Conatus Pharmaceuticals Inc, 2012. As to conditions: 30 mg per day for up to 24 weeks; ref Conatus Pharmaceuticals Inc, 2012; cited from earlier work.
Series [10] concerns 5-HT2B. More on the design: method as in MedChemExpress. As to conditions: IP accumulation assays; ref MedChemExpress; read-out: IC50, 5-HT2B inverse agonist; cited from earlier work.
Series [11] has as its system 5-HT2C. More on the design: method as in MedChemExpress. As to conditions: IP accumulation assays; ref MedChemExpress; read-out: IC50, 5-HT2C partial inverse agonist; cited from earlier work.
Series [12] has as its system 5-HT2A. More on the design: method as in MedChemExpress. As to conditions: IP accumulation assays; ref MedChemExpress; read-out: IC50, 5-HT2A inverse agonist; cited from earlier work.
Details of series [13]: method as in Williams et al., 2011b. As to conditions: ref Williams et al., 2011b; cited from earlier work.
Series [14] has as its system patients. More on the design: method as in Bissett et al., 2005. As to conditions: ref Bissett et al., 2005, cited from earlier work.
[15] abbreviates: read-out: EC50 against each of the venoms, secondary screen.
Setting [16] is: validation screen, read-out: EC50 range across all venoms, known inhibitors.
The mark [17] stands for this setting: validation screen, read-out: average EC50 across all venoms.

As a reminder, the EC50 is the concentration giving half of the maximal effect. With `NS(=O)(=O)c1cc2c(cc1Cl)N=CNS2(=O)=O` [chlorothiazide], in series [1] (setting [15]), the EC50 was greater than 1 µM.

For the molecule `Cn1c(=O)cc(N2CCC[C@@H](N)C2)n(Cc2cc(F)ccc2C#N)c1=O` [trelagliptin (succinate), trelagliptin], in series [1] (setting [15]), the EC50 was greater than 1 µM.

Turning to `S=C(N/N=C1\CCCc2cccnc21)N1CCN(c2ccccn2)CC1` [COTI-2], the “fold superiority of EC50 to dimercaprol” value in series [1] (across all venoms, secondary screen) is reported as greater than 2 fold. Also, in series [1] (read-out: EC50 range across all venoms, secondary screen), the EC50 lay in the range of 0.185 to 0.64 µM.

In the case of `CNC(=O)[C@@H](NC(=O)[C@H](CC(C)C)[C@H](O)C(=O)NO)C(C)(C)C` [marimastat, (2S,3R)-N4-[(1S)-2,2-Dimethyl-1-[(methylamino)carbonyl]propyl]-N1,2-dihydroxy-3-(2-methylpropyl)butanediamide], the half-maximal effective concentration (EC50) in [2] was found to be 0.00499 µM; in [3], 0.0277 µM; in series [4], 0.012 µM; in [5] it was 0.00236 µM; in series [6], 0.00746 µM.

`CS(=O)(=O)O.N=C(N)c1ccc2cc(OC(=O)c3ccc(N=C(N)N)cc3)ccc2c1` [nafamostat, (6-Carbamimidoylnaphthalen-2-yl)4-(diaminomethylideneamino)benzoate methanesulfonic acid]: the “activity at the top dose tested” value in [2] is given as “no activity”.

As to `CNC(=O)[C@H](Cc1ccccc1)NC(=O)[C@H](CC(C)C)[C@H](CSc1cccs1)C(=O)NO` [batimastat, (2R,3S)-N4-Hydroxy-N1-[(1S)-2-(methylamino)-2-oxo-1-(phenylmethyl)ethyl]-2-(2-methylpropyl)-3-[(2-thienylthio)methyl]butanediamide], the EC50 in series [2] came out at 0.00623 µM; in series [3] it was 0.042 µM; in series [4], 0.0154 µM; in [5], 0.00249 µM; in series [6], 0.00557 µM.

What is called Ki is the equilibrium dissociation constant of an inhibitor or competing ligand from its target. `CC(C)(C)NC(=O)[C@H]1CC[C@H]2[C@@H]3CC[C@H]4NC(=O)C=C[C@]4(C)[C@H]3CC[C@]12C` [Finasteride]: the Ki in series [7] (epithelium, read-out: Ki, 5alpha-reductase activity in epithelium) is 0.01 µM; in [7] (stroma, read-out: Ki, 5alpha-reductase activity in stroma) it was 0.033 µM. The “Solubility in DMSO” value in series [8] is 150 mg/mL and 402.64 mM.

Consider `C[C@]12C=CC(=O)N[C@@H]1CC[C@@H]1[C@@H]2CC[C@]2(C)[C@@H](C(=O)Nc3cc(C(F)(F)F)ccc3C(F)(F)F)CC[C@@H]12` [Dutasteride], for which the “Solubility in DMSO” value in series [8] is 63.06 mM (≈ 33.3 mg/mL).

For `O=S(=O)(O)CC(S)CS` (stereo not shown) [DMPS, 2,3-dimercapto-1-propane-sulfonic acid sodium salt monohydrate], the EC50 in series [2] is 0.959 µM; in series [1] (setting [16]), 0.527 to 5.28 µM; in series [1] (setting [17]), 2.25 µM; in [3], 5.28 µM; in series [4], 3.26 µM; in series [5] it was 1.21 µM. For the same molecule, the EC50 in series [6] was determined as 0.527 µM.

With `O=C(NO)C1(CS(=O)(=O)c2ccc(Oc3ccc(Cl)cc3)cc2)CCOCC1` [CTS-1027], the “adverse events in Phase II trials” value in [9] was “a range of serious adverse events”.

The IC50 is the concentration at which inhibition is half-maximal. For the molecule `COc1ccc(NC(=O)Nc2ccc(F)cc2F)cc1-c1c(Br)cnn1C` [Nelotanserin], the IC50 in [10] was 0.791 µM; in [11] it was 0.079 µM; in series [12] it was 0.0017 µM. In series [8], the “Solubility in DMSO” value is ≥ 32 mg/mL and ≥ 73.19 mM.

In the case of `CCc1c(C(=O)C(N)=O)c2c(OCC(=O)O)cccc2n1Cc1ccccc1` [varespladib, 2-[[3-(2-Amino-2-oxoacetyl)-2-ethyl-1-(phenylmethyl)-1H-indol-4-yl]oxy]-acetic acid], the “activity at the top dose tested” value in series [2] is on record as “no activity”.

With `OCC(S)CS` (stereo not shown) [dimercaprol, 2,3-dimercapto-1-propanol], the concentration for a half-maximal effect (EC50) was 1.12 µM and 1.13 µM in [2]; 0.558 to 6.86 µM in series [1] (setting [16]); 3.14 µM in series [1] (setting [17]); 6.86 µM in [3]; 4.89 µM in series [4]; 2.29 µM in series [5]. Further, the EC50 in [6] came to 0.558 µM.

For orientation: aqueous solubility means how much of the substance goes into solution per volume. In the case of `COCCOC(=O)N1CCN(S(=O)(=O)c2cc(F)c(Oc3ccc(Cl)cc3)c(F)c2)C(C(=O)NO)C1` (stereo not shown) [XL-784], the aqueous solubility in [13] is 20 µg/mL (≈ 36.4 µM).

Regarding `O=C(/C=C/c1cccc(S(=O)(=O)Nc2ccccc2)c1)NO` [belinostat], in series [1] (setting [15]), the half-maximal effective concentration (EC50) is greater than 1 µM.

`CC1(C)SCCN(S(=O)(=O)c2ccc(Oc3ccncc3)cc2)[C@H]1C(=O)NO` [prinomastat, prinomastat hydrochloride]: the 50% effective concentration (EC50) in [2] came to 0.00435 µM; in [3], 0.0367 µM; in series [4], 0.0198 µM; in series [5] it was 0.00242 µM; in series [6] it was 0.00953 µM. The “toxicity observed in Phase III trials” value in series [14] (15 mg bi-daily dosing for 3–36 months) is reported as “musculoskeletal toxicity was observed in a significant proportion of patients”. The “thromboembolic risk in Phase III trials” value in series [14] (cancer patients receiving combination chemotherapy) is recorded as “increased risk of venous thromboembolic disease”.

With `OCCN1C[C@H](O)[C@@H](O)[C@H](O)[C@H]1CO` [miglitol], in series [1] (setting [15]), the EC50 is greater than 1 µM.

Source of the values: PMC10808794, “Snakebite drug discovery: high-throughput screening to identify novel snake venom metalloproteinase toxin inhibitors” (Frontiers in Pharmacology, 2024).
